Cl.N/N=C(\N)NN
Settings | solubility (mole fraction)
in THF, 273.15 K | 1.96e-05
in THF, 278.15 K | 2.74e-05
in THF, 283.15 K | 3.7e-05
in THF, 288.15 K | 5.17e-05
in THF, 293.15 K | 6.85e-05
in THF, 298.15 K | 9.12e-05
in THF, 303.15 K | 0.000119
in THF, 308.15 K | 0.000154
in THF, 313.15 K | 0.000209
in THF, 318.15 K | 0.000265
in THF, 323.15 K | 0.000333
in acetonitrile, 273.15 K | 7.35e-06
in acetonitrile, 278.15 K | 1.19e-05
in acetonitrile, 283.15 K | 1.4e-05
in acetonitrile, 288.15 K | 2.09e-05
in acetonitrile, 293.15 K | 2.72e-05
in acetonitrile, 298.15 K | 3.41e-05
in acetonitrile, 303.15 K | 5.02e-05
in acetonitrile, 308.15 K | 6.91e-05
in acetonitrile, 313.15 K | 8.3e-05
in acetonitrile, 318.15 K | 9.96e-05
in acetonitrile, 323.15 K | 0.000142
in ethanol, 273.15 K | 0.000112
in ethanol, 278.15 K | 0.000156
in ethanol, 283.15 K | 0.000207
in ethanol, 288.15 K | 0.0003
in ethanol, 293.15 K | 0.000373
in ethanol, 298.15 K | 0.00054
in ethanol, 303.15 K | 0.000666
in ethanol, 308.15 K | 0.000904
in ethanol, 313.15 K | 0.00119
in ethanol, 318.15 K | 0.00158
in ethanol, 323.15 K | 0.002
in ethyl acetate, 273.15 K | 1.56e-05
in ethyl acetate, 278.15 K | 2.2e-05
in ethyl acetate, 283.15 K | 3.03e-05
in ethyl acetate, 288.15 K | 4.16e-05
in ethyl acetate, 293.15 K | 5.57e-05
in ethyl acetate, 298.15 K | 7.51e-05
in ethyl acetate, 303.15 K | 0.000101
in ethyl acetate, 308.15 K | 0.00013
in ethyl acetate, 313.15 K | 0.000169
in ethyl acetate, 318.15 K | 0.000217
in ethyl acetate, 323.15 K | 0.000281
in isobutanol, 273.15 K | 2.22e-05
in isobutanol, 278.15 K | 3.04e-05
in isobutanol, 283.15 K | 4.2e-05
in isobutanol, 288.15 K | 5.88e-05
in isobutanol, 293.15 K | 7.77e-05
in isobutanol, 298.15 K | 0.000105
in isobutanol, 303.15 K | 0.000134
in isobutanol, 308.15 K | 0.000177
in isobutanol, 313.15 K | 0.000233
in isobutanol, 318.15 K | 0.000301
in isobutanol, 323.15 K | 0.000389
in isopropanol, 273.15 K | 2.41e-05
in isopropanol, 278.15 K | 3.39e-05
in isopropanol, 283.15 K | 4.68e-05
in isopropanol, 288.15 K | 6.35e-05
in isopropanol, 293.15 K | 8.43e-05
in isopropanol, 298.15 K | 0.000112
in isopropanol, 303.15 K | 0.000148
in isopropanol, 308.15 K | 0.000192
in isopropanol, 313.15 K | 0.000248
in isopropanol, 318.15 K | 0.000326
in isopropanol, 323.15 K | 0.000417
in methanol, 273.15 K | 0.00218
in methanol, 278.15 K | 0.00272
in methanol, 283.15 K | 0.00338
in methanol, 288.15 K | 0.00436
in methanol, 293.15 K | 0.00522
in methanol, 298.15 K | 0.00664
in methanol, 303.15 K | 0.00802
in methanol, 308.15 K | 0.00971
in methanol, 313.15 K | 0.0118
in methanol, 318.15 K | 0.0144
in methanol, 323.15 K | 0.0175
in n-butanol, 273.15 K | 3.27e-05
in n-butanol, 278.15 K | 4.64e-05
in n-butanol, 283.15 K | 6.17e-05
in n-butanol, 288.15 K | 8.36e-05
in n-butanol, 293.15 K | 0.000111
in n-butanol, 298.15 K | 0.000147
in n-butanol, 303.15 K | 0.000197
in n-butanol, 308.15 K | 0.000259
in n-butanol, 313.15 K | 0.000345
in n-butanol, 318.15 K | 0.000432
in n-butanol, 323.15 K | 0.000549
in n-heptane, 273.15 K | 1.74e-05
in n-heptane, 278.15 K | 2.52e-05
in n-heptane, 283.15 K | 3.41e-05
in n-heptane, 288.15 K | 4.7e-05
in n-heptane, 293.15 K | 6.36e-05
in n-heptane, 298.15 K | 8.63e-05
in n-heptane, 303.15 K | 0.000119
in n-heptane, 308.15 K | 0.000153
in n-heptane, 313.15 K | 0.000204
in n-heptane, 318.15 K | 0.000264
in n-heptane, 323.15 K | 0.000334
in n-hexane, 273.15 K | 1.77e-05
in n-hexane, 278.15 K | 2.5e-05
in n-hexane, 283.15 K | 3.47e-05
in n-hexane, 288.15 K | 4.69e-05
in n-hexane, 293.15 K | 6.58e-05
in n-hexane, 298.15 K | 8.84e-05
in n-hexane, 303.15 K | 0.000115
in n-hexane, 308.15 K | 0.000154
in n-hexane, 313.15 K | 0.000205
in n-hexane, 318.15 K | 0.000261
in n-hexane, 323.15 K | 0.00035
in n-propanol, 273.15 K | 4.25e-05
in n-propanol, 278.15 K | 5.9e-05
in n-propanol, 283.15 K | 7.94e-05
in n-propanol, 288.15 K | 0.00011
in n-propanol, 293.15 K | 0.000145
in n-propanol, 298.15 K | 0.000189
in n-propanol, 303.15 K | 0.000253
in n-propanol, 308.15 K | 0.000319
in n-propanol, 313.15 K | 0.000412
in n-propanol, 318.15 K | 0.000539
in n-propanol, 323.15 K | 0.000675
in water, 273.15 K | 0.0395
in water, 278.15 K | 0.0481
in water, 283.15 K | 0.0546
in water, 288.15 K | 0.0664
in water, 293.15 K | 0.0778
in water, 298.15 K | 0.0879
in water, 303.15 K | 0.101
in water, 308.15 K | 0.112
in water, 313.15 K | 0.127
in water, 318.15 K | 0.145
in water, 323.15 K | 0.161

From BigSolDB 2.1
